Patent US9663526B2, “Aminopyrimidinyl compounds” (Pfizer Inc., priority 2014, dated 2017)
Where two headings read alike, the source gives them in different places.

Key:
[1] = biological target: recombinant human kinase domain of JAK1 (Homo sapiens (Human), UniProt P23458); test: JAK Caliper enzyme assay at 1 mM ATP (JAK1); assay type: biochemical;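 also: microfluidic mobility-shift readout of synthetic fluorescent peptide phosphorylation, percent product converted from peak height, inhibition relative to DMSO-only wells as uninhibited baseline, room temperature incubation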
[2] = biological target: recombinant human kinase domain of JAK3 (Homo sapiens (Human), UniProt P52333); test: JAK Caliper enzyme assay at 1 mM ATP (JAK3); assay type: biochemical;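 also: microfluidic mobility-shift readout of synthetic peptide phosphorylation, percent product converted from peak heights, normalized to DMSO-only wells as uninhibited baseline, room temperature incubation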
[3] = system: interferon alpha signalling (TYK2 and JAK1), STAT3 phosphorylation; test: Human whole blood INFα induced STAT3 phosphorylation assay; assay type: cell-based; conditions: compound 60 minutes at 37° C., IFNα 5000 U/ml for 15 minutes, pSTAT3 in lymphocyte population by flow cytometry, read-out: HWB IFN alpha IC50;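 also: flow cytometry with anti-pSTAT3 staining, signal as percent-positive × mean fluorescence, baseline from unstimulated wells, 11-point dilution series, IC50 as inhibition of pSTAT3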
[4] = biological target: recombinant human kinase domain of TYK2 (Homo sapiens (Human), UniProt P29597); test: JAK Caliper enzyme assay at 1 mM ATP (TYK2); assay type: biochemical; conditions: 1 mM ATP; read-out: IC50 (nM) TYK2;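 also: microfluidic mobility-shift readout of synthetic peptide phosphorylation by TYK2, tuned to 20–30% conversion at room temperature, reaction stopped with EDTA, DMSO-only wells as uninhibited baseline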
[5] = biological target: recombinant human kinase domain of JAK2 (Homo sapiens (Human), UniProt O60674); test: JAK Caliper enzyme assay at 1 mM ATP (JAK2); assay type: biochemical;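 also: microfluidic mobility-shift read-out of fluorescent synthetic peptide phosphorylation, percent product converted from peak heights, room temperature, DMSO-only wells as uninhibited baseline, inhibition curve fit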
[6] = 1 mM ATP, read-out: IC50 (nM) JAK3
[7] = 1 mM ATP, read-out: IC50 (nM) JAK1

Sequence of recombinant human kinase domain of JAK2 (O60674 849-1124): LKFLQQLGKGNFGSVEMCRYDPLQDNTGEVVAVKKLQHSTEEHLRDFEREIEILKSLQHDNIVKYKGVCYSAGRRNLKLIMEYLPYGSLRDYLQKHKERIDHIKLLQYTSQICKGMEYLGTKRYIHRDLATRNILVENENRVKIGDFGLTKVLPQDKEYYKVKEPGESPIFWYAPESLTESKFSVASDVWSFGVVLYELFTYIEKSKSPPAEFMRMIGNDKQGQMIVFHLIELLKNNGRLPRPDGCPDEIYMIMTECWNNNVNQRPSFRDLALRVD
Sequence of recombinant human kinase domain of JAK1 (P23458 875-1153): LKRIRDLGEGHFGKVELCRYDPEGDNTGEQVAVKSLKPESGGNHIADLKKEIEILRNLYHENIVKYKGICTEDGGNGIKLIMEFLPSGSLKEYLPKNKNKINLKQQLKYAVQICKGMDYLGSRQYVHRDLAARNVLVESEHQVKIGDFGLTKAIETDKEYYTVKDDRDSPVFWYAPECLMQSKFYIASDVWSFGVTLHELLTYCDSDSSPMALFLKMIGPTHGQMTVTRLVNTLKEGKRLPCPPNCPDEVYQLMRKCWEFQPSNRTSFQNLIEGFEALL
Sequence of recombinant human kinase domain of JAK3 (P52333 822-1111): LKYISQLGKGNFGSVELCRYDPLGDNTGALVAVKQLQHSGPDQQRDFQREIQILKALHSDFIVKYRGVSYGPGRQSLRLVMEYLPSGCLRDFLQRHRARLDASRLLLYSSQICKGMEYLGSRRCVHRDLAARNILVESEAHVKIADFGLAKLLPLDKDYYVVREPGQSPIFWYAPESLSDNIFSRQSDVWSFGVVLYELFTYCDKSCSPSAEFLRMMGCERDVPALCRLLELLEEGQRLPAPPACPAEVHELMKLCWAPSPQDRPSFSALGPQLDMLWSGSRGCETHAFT
Sequence of recombinant human kinase domain of TYK2 (P29597 897-1176): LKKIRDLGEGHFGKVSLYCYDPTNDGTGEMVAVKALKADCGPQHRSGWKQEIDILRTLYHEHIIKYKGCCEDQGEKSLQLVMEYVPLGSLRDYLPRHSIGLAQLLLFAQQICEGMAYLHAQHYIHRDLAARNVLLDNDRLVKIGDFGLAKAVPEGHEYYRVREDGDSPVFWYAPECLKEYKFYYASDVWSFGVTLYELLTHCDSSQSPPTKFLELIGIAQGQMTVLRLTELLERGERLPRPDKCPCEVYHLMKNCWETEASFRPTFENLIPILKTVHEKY

SMILES	IC50 [1]	IC50 [2, 6]	IC50 [3]	IC50 [4]	IC50 [5]	IC50 [1, 7]	IC50 [2]
CNC(=O)c1ncc(Nc2nccc(N3C[C@H]4CC[C@@H](C3)N4C(=O)[C@@H]3CC3(F)F)n2)cc1F [Example 29, 5-({4-[(1R,5S)-8-{[(1S)-2,2-difluorocyclopropyl]carbonyl}-3,8-diazabicyclo[3.2.1]oct-3-yl]pyrimidin-2-yl}amino)-3-fluoro-N-methylpyridine-2-carboxamide]	131 nM	> 10000 nM	0.118 µM	31 nM	487 nM		
CCNC(=O)N1[C@@H]2CC[C@H]1CN(c1ccnc(Nc3cnsc3)n1)C2 [Example 74, (1R,5S)—N-ethyl-3-[2-(1,2-thiazol-4-ylamino)pyrimidin-4-yl]-3,8-diazabicyclo[3.2.1 l]octane-8-carboxamide]		> 10000 nM	0.213 µM	65 nM	691 nM	67 nM	
CCNC(=O)N1[C@@H]2CC[C@H]1CN(c1ccnc(Nc3cnc(C(=O)NC)c(C)c3)n1)C2 [Example 91, (1R,5S)—N-ethyl-3-(2-{[5-methyl-6-(methylcarbamoyl)pyridin-3-yl]amino}pyrimidin-4-yl)-3,8-diazabicyclo[3.2.1]octane-8-carboxamide]		> 10000 nM	0.195 µM	39 nM	513 nM	183 nM	
Cn1cc(Nc2nccc(N3C[C@H]4CC[C@@H](C3)N4C3CN(S(C)(=O)=O)C3)n2)cn1 [Example 60, N-(1-methyl-1H-pyrazol-4-yl)-4-{(1R,5S)-8-[1-(methylsulfonyl)azetidin-3-yl]-3,8-diazabicyclo[3.2.1]oct-3-yl}pyrimidin-2-amine]		> 10000 nM	0.103 µM	70 nM	159 nM	36 nM	
CC(C)(C#N)c1ccc(Nc2nccc(N3C[C@H]4CC[C@@H](C3)N4C(=O)[C@@H]3CC3(F)F)n2)cn1 [Example 26, 2-[5-({4-[(1R,5S)-8-{[(1S)-2,2-difluorocyclopropyl]carbonyl}-3,8-diazabicyclo[3.2.1]oct-3-yl]pyrimidin-2-yl}amino)pyridin-2-yl]-2-methylpropanenitrile]		> 10000 nM	0.247 µM	25 nM	192 nM	60 nM	
CNC(=O)c1ncc(Nc2nccc(N3C[C@H]4CC[C@@H](C3)N4C(=O)NCC(F)(F)F)n2)cc1C [Example 89]		4430 nM	0.118 µM	9 nM	65 nM	10 nM	
O=C([C@@H]1CC1(F)F)N1[C@@H]2CC[C@H]1CN(c1ccnc(Nc3cnc(CCO)c(F)c3)n1)C2 [Example 19, [(1S)-2,2-difluorocyclopropyl][(1R,5S)-3-(2-{[5-fluoro-6-(2-hydroxyethyl)pyridin-3-yl]amino}pyrimidin-4-yl)-3,8-diazabicyclo[3.2.1]oct-8-yl]methanone]		> 10000 nM	0.238 µM	52 nM	402 nM	463 nM	
CNC(=O)c1ncc(Nc2nccc(N3C[C@H]4CC[C@@H](C3)N4[C@H]3C[C@@H](C#N)C3)n2)cc1C (single isomer, unassigned) [Example 61]	31 nM		0.135 µM	18 nM	44 nM		4080 nM
CNC(=O)c1ncc(Nc2nccc(N3C[C@H]4CC[C@@H](C3)N4C(=O)C3CC3)n2)cc1C [Example 6, 5-({4-[(1R,5S)-8-(cyclopropylcarbonyl)-3,8-diazabicyclo[3.2.1]oct-3-yl]pyrimidin-2-yl}amino)-N,3-dimethylpyridine-2-carboxamide]		> 10000 nM	0.232 µM	36 nM	754 nM	337 nM	
Cn1cc(Nc2nccc(N3C[C@H]4CC[C@@H](C3)N4C3(CC#N)COC3)n2)cn1 [Example 84, {3-[(1R,5S)-3-{2-[(1-methyl-1H-pyrazol-4-yl)amino]pyrimidin-4-yl}-3,8-diazabicyclo[3.2.1]oct-8-yl]oxetan-3-yl}acetonitrile]		> 10000 nM	0.156 µM	62 nM	155 nM	141 nM	
O=C([C@@H]1CC1(F)F)N1[C@@H]2CC[C@H]1CN(c1ccnc(Nc3cnc(N4CC(O)C4)c(F)c3)n1)C2 [Example 22, [(1S)-2,2-difluorocyclopropyl][(1R,5S)-3-(2-{[5-fluoro-6-(3-hydroxyazetidin-1-yl)pyridin-3-yl]amino}pyrimidin-4-yl)-3,8-diazabicyclo[3.2.1]oct-8-yl]methanone]		> 10000 nM	0.41 µM	55 nM	312 nM	490 nM	
CCNC(=O)N1[C@@H]2CC[C@H]1CN(c1ccnc(Nc3cnc(C(=O)NC)c(Cl)c3)n1)C2 [Example 75, (1R,5S)-3-(2-{[5-chloro-6-(methylcarbamoyl)pyridin-3-yl]amino}pyrimidin-4-yl)-N-ethyl-3,8-diazabicyclo[3.2.1]octane-8-carboxamide]		> 10000 nM	0.751 µM	66 nM	1290 nM	462 nM	
O=C([C@@H]1CC1(F)F)N1[C@@H]2CC[C@H]1CN(c1ccnc(Nc3cnc(CCO)c(Cl)c3)n1)C2 [Example 18, [(1R,5S)-3-(2-{[5-chloro-6-(2-hydroxyethyl)pyridin-3-yl]amino}pyrimidin-4-yl)-3,8-diazabicyclo[3.2.1]oct-8-yl][(1S)-2,2-difluorocyclopropyl]methanone]		> 10000 nM	0.338 µM	62 nM	331 nM	352 nM	
CCNC(=O)c1ccc(Nc2nccc(N3CC4CC(C3)N4C(=O)C(C)(F)F)n2)cc1 [Example 114, 4-({4-[6-(2,2-difluoropropanoyl)-3,6-diazabicyclo[3.1.1]hept-3-yl]pyrimidin-2-yl}amino)-N-ethylbenzamide]		> 10000 nM	0.166 µM	62 nM	1860 nM	955 nM	
CCNC(=O)N1[C@@H]2CC[C@H]1CN(c1ccnc(Nc3cnc(C(=O)NC)c(F)c3)n1)C2 [Example 87, (1R,5S)—N-ethyl-3-(2-{[5-fluoro-6-(methylcarbamoyl)pyridin-3-yl]amino}pyrimidin-4-yl)-3,8-diazabicyclo[3.2.1]octane-8-carboxamide]		> 10000 nM	0.582 µM	93 nM	1790 nM	337 nM	
CC(CC#N)N1[C@@H]2CC[C@H]1CN(c1ccnc(Nc3cnn(C)c3)n1)C2 (stereo partly drawn) [Example 80, 3-[(1R,5S)-3-{2-[(1-methyl-1H-pyrazol-4-yl)amino]pyrimidin-4-yl}-3,8-diazabicyclo[3.2.1 l]oct-8-yl]butanenitrile]		> 10000 nM	0.112 µM	79 nM	436 nM	190 nM	
